The results in this text go back to patent US9428504B2, “7-hydroxy-spiropipiperidine indolinyl antagonists of P2Y1 receptor” (BRISTOL-MYERS SQUIBB COMPANY, priority 2012, dated 2016).

The target of assay [1] is cloned human P2Y1 receptors (Homo sapiens (Human), UniProt P47900). The assay can be described thus: Binding Assay B: Scintillation Proximity Assay (SPA) for P2Y1 binding. Particulars: SPA, [33P] 2MeS-ADP displacement; read-out: P2Y1 Ki (nM) using binding assay B. On the procedure: A SPA membrane binding assay was used to identify inhibitors of [^33P] […] Binding reactions were performed in 384-well OptiPlates (PerkinElmer Life Sciences, Cat #6007299) in a volume of 50 μL containing ˜15 fmol of P2Y1 receptor (1.7 μg of total protein), 0.3 nM [^33P] […] Reactions were allowed to proceed to completion at room temperature for 1 hour followed by centrifugation of the plate for 5 min. About 40 μL of the aqueous solution was aspirated. Plates were sealed and the [^33P]

Assay [2] concerns human platelet rich plasma (PRP). The assay can be described thus: ADP induced platelet aggregation assay.
[3] abbreviates: Homo sapiens, Platelet, read-out: PA IC50 (μM) @ 10 μM ADP, platelet aggregation induced by 10 μM ADP, human PRP.

Where two headings read alike, the source gives them in different places.

cloned human P2Y1 receptors, sequence (P47900 whole entry): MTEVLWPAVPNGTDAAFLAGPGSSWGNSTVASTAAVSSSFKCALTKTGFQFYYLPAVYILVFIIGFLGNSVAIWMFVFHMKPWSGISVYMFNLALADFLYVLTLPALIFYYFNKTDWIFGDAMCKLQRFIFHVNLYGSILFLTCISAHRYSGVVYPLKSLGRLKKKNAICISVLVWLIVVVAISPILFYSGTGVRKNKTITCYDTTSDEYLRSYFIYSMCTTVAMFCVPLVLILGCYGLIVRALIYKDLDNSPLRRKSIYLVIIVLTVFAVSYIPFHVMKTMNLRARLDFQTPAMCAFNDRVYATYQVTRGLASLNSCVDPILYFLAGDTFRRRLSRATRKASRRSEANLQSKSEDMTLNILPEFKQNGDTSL

For the molecule `CCSc1nsc(NC(=O)Nc2ccccc2N2CC3(CCN(CC(C)(C)C)CC3)c3c(Cl)ccc(O)c32)n1` [Example 44, 1-(2-(4-Chloro-7-hydroxy-1′-neopentylspiro[indoline-3,4′-piperidine]-1-yl)phenyl)-3-(3-(ethylthio)-1,2,4-thiadiazol-5-yl)urea], the Ki in assay [1] worked out at 7.3 nM. For the same molecule, in assay [2] (setting [3]), the IC50 is 0.1 µM.

`CC(C)(C)CN1CCC2(CC1)CN(c1ccccc1NC(=O)Nc1nc3ccc(Cl)nc3s1)c1c(O)ccc(Cl)c12` [Example 166, 1-(2-(4-Chloro-7-hydroxy-1′-neopentylspiro[indoline-3,4′-piperidine]-1-yl)phenyl)-3-(5-chlorothiazolo[5,4-b]pyridin-2-yl)urea]: the Ki in assay [1] was 6.8 nM. Moreover, the IC50 in assay [2] (read-out: PA IC50 (μM) @ 10 μM ADP, platelet aggregation induced by 10 μM ADP, human PRP) came to 0.1 µM.

For the molecule `COc1ccc2nc(-c3ccc(O)c4c3C3(CCN(CC(C)(C)C)CC3)CN4c3ccccc3NC(=O)Nc3nc4ccc(Cl)cc4s3)sc2c1` [Example 131, 1-(6-Chlorobenzo[d]thiazol-2-yl)-3-(2-(7-hydroxy-4-(6-methoxybenzo[d]thiazol-2-yl)-1′-neopentylspiro[indoline-3,4′-piperidin]-1-yl)phenyl)urea], the Ki in assay [1] worked out at 22.5 nM. Besides, the IC50 in assay [2] (setting [3]) was 1 µM.

For the molecule `CC(C)(C)CN1CCC2(CC1)CN(c1ccccc1NC(=O)Nc1ccc(OC(F)(F)F)cc1)c1c2ccc(F)c1O` [Example 14, 1-(2-(6-Fluoro-7-hydroxy-1′-neopentylspiro[indoline-3,4′-piperidine]-1-yl)phenyl)-3-(4-(trifluoromethoxy)phenyl)urea], in assay [1], the Ki was 12.8 nM. In assay [2] (setting [3]), the IC50 stood at 2.1 µM.

Turning to `CC(C)(C)CN1CCC2(CC1)CN(c1ccccc1NC(=O)Nc1ccc(OC(F)(F)F)cc1)c1c(O)ccc(-c3nc4cc(F)ccc4s3)c12` [Example 135, 1-(2-(4-(5-Fluorobenzo[d]thiazol-2-yl)-7-hydroxy-1′-neopentylspiro[indoline-3,4′-piperidin]-1-yl)phenyl)-3-(4-(trifluoromethoxy)phenyl)urea], the Ki in assay [1] was 21.7 nM. The IC50 in assay [2] (setting [3]) is 0.6 µM.

On to `CC(C)(C)CN1CCC2(CC1)CN(c1ccccc1NC(=O)Nc1csc(Cl)c1)c1c(O)ccc(C(F)(F)F)c12` [Example 26, 1-(5-Chlorothiophen-3-yl)-3-(2-(7-hydroxy-1′-neopentyl-4-(trifluoromethyl)spiro[indoline-3,4′-piperidine]-1-yl)phenyl)urea], for which the Ki in assay [1] was determined as 7.3 nM. In addition, in assay [2] (setting [3]), the IC50 turned out to be 0.2 µM.

With `CC(C)(C)CN1CCC2(CC1)CN(c1ccccc1NC(=O)Nc1ccc(F)cc1F)c1c(O)ccc(Cl)c12` [Example 54, 1-(2-(4-Chloro-7-hydroxy-1′-neopentylspiro[indoline-3,4′-piperidine]-1-yl)phenyl)-3-(2,4-difluorophenyl)urea], in assay [1], the Ki stood at 9.6 nM. Besides, in assay [2] (setting [3]), the IC50 amounted to 1.1 µM.

On to `CC(C)(C)CN1CCC2(CC1)CN(c1ccccc1NC(=O)Nc1nc3ccc(F)cc3s1)c1c(O)c(F)cc(Cl)c12` [Example 100, 1-(2-(4-Chloro-6-fluoro-7-hydroxy-1′-neopentylspiro [indoline-3,4′-piperidine]-1-yl)phenyl)-3-(6-fluorobenzo[d]thiazol-2-yl)urea], for which, in assay [1], the Ki stood at 7.9 nM. In assay [2] (setting [3]), the IC50 turned out to be 0.2 µM.

`COc1ccc2nc(NC(=O)Nc3ccccc3N3CC4(CCN(CC(C)(C)C)CC4)c4c(C(F)(F)F)ccc(O)c43)sc2c1` [Example 108, 1-(2-(7-Hydroxy-1′-neopentyl-4-(trifluoromethyl)spiro [indoline-3,4′-piperidin]-1-yl)phenyl)-3-(6-methoxybenzo [d]thiazol-2-yl)urea]: in assay [1], the Ki was determined as 14.5 nM. Also, the IC50 in assay [2] (setting [3]) stood at 0.2 µM.

For `CC(C)(C)CN1CCC2(CC1)CN(c1ccccc1NC(=O)Nc1ccc(OC(F)(F)F)cc1)c1c(O)cc(F)c(-c3ccc(F)cc3)c12` [Example 155, 1-(2-(5-Fluoro-4-(4-fluorophenyl)-7-hydroxy-1′-neopentylspiro[indoline-3,4′-piperidin]-1-yl)phenyl)-3-(4-(trifluoromethoxy)phenyl)urea], the Ki in assay [1] was found to be 22.5 nM. Moreover, the half-maximal inhibitory concentration (IC50) in assay [2] (setting [3]) is 0.1 µM.

Regarding `CC(C)(C)CN1CCC2(CC1)CN(c1ccccc1NC(=O)Nc1ccc(OC(F)(F)F)cc1)c1c(O)cc(F)c(-c3ccc(C(F)(F)F)nc3)c12` [Example 160, 1-(2-(5-Fluoro-7-hydroxy-1′-neopentyl-4-(6-(trifluoromethyl)pyridin-3-yl)spiro[indoline-3,4′-piperidin]-1-yl)phenyl)-3-(4-(trifluoromethoxy)phenyl)urea], the Ki in assay [1] amounted to 199 nM. The IC50 in assay [2] (setting [3]) was 0.1 µM.

With `CC(C)(C)CN1CCC2(CC1)CN(c1ncccc1NC(=O)Nc1nc3ccc(Cl)nc3s1)c1c(O)ccc(C(F)(F)F)c12` [Example 176, 1-(5-Chlorothiazolo[5,4-b]pyridin-2-yl)-3-(2-(7-hydroxy-1′-neopentyl-4-(trifluoromethyl)spiro[indoline-3,4′-piperidine]-1-yl)pyridin-3-yl)urea], the Ki in assay [1] is 7.2 nM. In addition, the IC50 in assay [2] (setting [3]) was found to be 0.4 µM.

Turning to `CC(C)(C)CN1CCC2(CC1)CN(c1ccccc1NC(=O)Nc1nc3ccc(Cl)nc3s1)c1c(O)ccc(-c3nc4ccc(F)cc4s3)c12` [Example 144, 1-(5-Chlorothiazolo[5,4-b]pyridin-2-yl)-3-(2-(4-(6-fluorobenzo[d]thiazol-2-yl)-7-hydroxy-1′-neopentylspiro[indoline-3,4′-piperidin]-1-yl)phenyl)urea], in assay [1], the Ki came to 13 nM. The IC50 in assay [2] (setting [3]) is 0.7 µM.

With `CC(C)(C)CN1CCC2(CC1)CN(c1ccccc1NC(=O)Nc1nc3ccc(Cl)cc3s1)c1c(O)cc(F)c(-c3nc4cc(Cl)ccc4s3)c12` [Example 141, 1-(6-Chlorobenzo[d]thiazol-2-yl)-3-(2-(4-(5-chlorobenzo[d]thiazol-2-yl)-5-fluoro-7-hydroxy-1′-neopentylspiro[indoline-3,4′-piperidin]-1-yl)phenyl)urea], the Ki in assay [1] came to 33.9 nM. Moreover, the IC50 in assay [2] (setting [3]) was 0.9 µM.

On to `COC(=O)c1ccc(O)c2c1C1(CCN(CC(C)(C)C)CC1)CN2c1ccccc1NC(=O)Nc1ccc(F)cc1F` [Example 78, Methyl 1-(2-(3-(2,4-difluorophenyl)ureido)phenyl)-7-hydroxy-1′-neopentylspiro[indoline-3,4′-piperidine]-4-carboxylate], for which, in assay [1], the Ki came out at 7.9 nM. Moreover, the IC50 in assay [2] (setting [3]) amounted to 0.7 µM.

`CC(C)(C)CN1CCC2(CC1)CN(c1ccccc1NC(=O)Nc1ccc(OC(F)(F)F)cc1)c1c(O)ccc(-c3nc4c(Cl)cccc4s3)c12` [Example 115, 1-(2-(4-(4-Chlorobenzo[d]thiazol-2-yl)-7-hydroxy-1′-neopentylspiro[indoline-3,4′-piperidin]-1-yl)phenyl)-3-(4-(trifluoromethoxy)phenyl)urea]: the Ki in assay [1] was found to be 22.8 nM. In addition, the IC50 in assay [2] (setting [3]) was found to be 1 µM.

As for `CC(C)(C)CN1CCC2(CC1)CN(c1ccccc1NC(=O)Nc1ccc(C(F)(F)F)cc1)c1c(O)ccc(Cl)c12` [Example 60, 1-(2-(4-Chloro-7-hydroxy-1′-neopentylspiro[indoline-3,4′-piperidin]-1-yl)phenyl)-3-(4-(trifluoromethyl)phenyl)urea], the Ki in assay [1] amounted to 6.4 nM. In assay [2] (setting [3]), the IC50 came to 0.4 µM.
